Data: ChEMBL document CHEMBL1201862, “PubChem BioAssay data set” (2004)
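Growth conditions: 96-well plates. Treatment: test compound, 48 hours, 5 concentrations. Analysis: linear interpolation between bracketing concentrations; unreached endpoints set to highest concentration. GI50: concentration for 50% inhibition of growth.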 Calls of active or inactive are those of the source. Cut-off read from the data, not from the text of the source: active = GI50 up to about 1.1 µM and inactive = higher.

How the values were obtained:
Experiment in all cases: inhibition of tumour cell growth, NCI panel, 48 h
HOP-62 = system: HOP-62
SN12C = system: SN12C
A549 = system: A549
UACC-62 = system: UACC-62
HOP-92 = system: HOP-92
HT-29 = system: HT-29
A498 = system: A498
PC-3 = system: PC-3
SF-268 = system: SF-268
OVCAR-8 = system: OVCAR-8
ACHN = system: ACHN
MDA-MB-231 = system: MDA-MB-231
Malme-3M = system: Malme-3M
SK-OV-3 = system: SK-OV-3
BT-549 = system: BT-549
HCT-116 = system: HCT-116
NCI/ADR-RES = system: NCI/ADR-RES
SK-MEL-5 = system: SK-MEL-5
SW-620 = system: SW-620
SK-MEL-2 = system: SK-MEL-2
DU-145 = system: DU-145
UO-31 = system: UO-31
KM12 = system: KM12
NCI-H226 = system: NCI-H226
HL-60 = system: HL-60
HCT-15 = system: HCT-15
IGROV-1 = system: IGROV-1
MOLT-4 = system: MOLT-4
SK-MEL-28 = system: SK-MEL-28
OVCAR-4 = system: OVCAR-4
SF-539 = system: SF-539
SNB-19 = system: SNB-19
CAKI-1 = system: CAKI-1
OVCAR-5 = system: OVCAR-5
SR = system: SR
RPMI-8226 = system: RPMI-8226
MDA-MB-435 = system: MDA-MB-435
U-251 = system: U-251
SF-295 = system: SF-295
SNB-75 = system: SNB-75
RXF 393 = system: RXF 393
COLO 205 = system: COLO 205
OVCAR-3 = system: OVCAR-3
K562 = system: K562
M14 = system: M14
786-0 = system: 786-0
NCI-H460 = system: NCI-H460
LOX IMVI = system: LOX IMVI
NCI-H23 = system: NCI-H23
EKVX = system: EKVX
Hs-578T = system: Hs-578T
NCI-H522 = system: NCI-H522
T47D = system: T47D
TK-10 = system: TK-10
UACC-257 = system: UACC-257
MCF7 = system: MCF7
HCC 2998 = system: HCC 2998
CCRF-CEM = system: CCRF-CEM

## COC(=O)c1ccccc1Nc1nc(-c2cccs2)nc2cc(OC)c(OC)cc12
HOP-62
  GI50: 18.3 µM (inactive)
SN12C
  GI50: 48.5 µM (inactive)
A549
  GI50: 54 µM (inactive)
UACC-62
  GI50: 52.6 µM (inactive)
HOP-92
  GI50: 44.5 µM (inactive)
HT-29
  GI50: > 100 µM (inactive)
A498
  GI50: > 100 µM (inactive)
PC-3
  GI50: 52.2 µM (inactive)
SF-268
  GI50: 46.3 µM (inactive)
OVCAR-8
  GI50: 15.2 µM (inactive)
ACHN
  GI50: 47.8 µM (inactive)
MDA-MB-231
  GI50: 28.9 µM (inactive)
Malme-3M
  GI50: 61 µM (inactive)
SK-OV-3
  GI50: 55.7 µM (inactive)
BT-549
  GI50: > 100 µM (inactive)
HCT-116
  GI50: 37.5 µM (inactive)
NCI/ADR-RES
  GI50: 57 µM (inactive)
SK-MEL-5
  GI50: > 100 µM (inactive)
SW-620
  GI50: > 100 µM (inactive)
SK-MEL-2
  GI50: 64.7 µM (inactive)
DU-145
  GI50: 92.3 µM (inactive)
UO-31
  GI50: > 100 µM (inactive)
KM12
  GI50: 71.8 µM (inactive)
NCI-H226
  GI50: 23.4 µM (inactive)
HL-60
  GI50: > 100 µM (inactive)
HCT-15
  GI50: 90.2 µM
IGROV-1
  GI50: 14.7 µM (inactive)
MOLT-4
  GI50: 57.9 µM (inactive)
SK-MEL-28
  GI50: > 100 µM (inactive)
OVCAR-4
  GI50: 40.6 µM (inactive)
SF-539
  GI50: 27.4 µM (inactive)
SNB-19
  GI50: 33.1 µM (inactive)
CAKI-1
  GI50: 39.4 µM (inactive)
OVCAR-5
  GI50: 36.2 µM (inactive)
SR
  GI50: 18 µM (inactive)
RPMI-8226
  GI50: 49.8 µM (inactive)
MDA-MB-435
  GI50: > 100 µM (inactive)
U-251
  GI50: 31.2 µM (inactive)
SF-295
  GI50: 29.2 µM (inactive)
SNB-75
  GI50: 75.3 µM (inactive)
RXF 393
  GI50: 68.1 µM (inactive)
COLO 205
  GI50: 45.4 µM (inactive)
OVCAR-3
  GI50: 40.2 µM (inactive)
K562
  GI50: > 100 µM (inactive)
M14
  GI50: > 100 µM (inactive)
786-0
  GI50: 38.8 µM (inactive)
NCI-H460
  GI50: 58.6 µM (inactive)
LOX IMVI
  GI50: 39.4 µM (inactive)
NCI-H23
  GI50: 17.4 µM (inactive)
EKVX
  GI50: 37.9 µM (inactive)
Hs-578T
  GI50: 30.3 µM (inactive)
NCI-H522
  GI50: 59.7 µM (inactive)
T47D
  GI50: 37 µM (inactive)
TK-10
  GI50: 28.3 µM (inactive)
UACC-257
  GI50: 70.8 µM (inactive)
MCF7
  GI50: 72.3 µM (inactive)

## O=C1CCCC/C1=C(\Br)I
HOP-62
  GI50: 19.2 µM (inactive)
SN12C
  GI50: 16.9 µM (inactive)
A549
  GI50: 23.3 µM (inactive)
UACC-62
  GI50: 15.5 µM (inactive)
HOP-92
  GI50: 17.9 µM (inactive)
HT-29
  GI50: 12.9 µM (inactive)
A498
  GI50: 19.4 µM (inactive)
PC-3
  GI50: 17.3 µM (inactive)
SF-268
  GI50: 9.62 µM (inactive)
OVCAR-8
  GI50: 14.5 µM (inactive)
HCC 2998
  GI50: 4.95 µM (inactive)
ACHN
  GI50: 16.1 µM (inactive)
MDA-MB-231
  GI50: 17.6 µM (inactive)
Malme-3M
  GI50: 5.5 µM (inactive)
SK-OV-3
  GI50: 22 µM (inactive)
BT-549
  GI50: 17.6 µM (inactive)
HCT-116
  GI50: 12 µM (inactive)
NCI/ADR-RES
  GI50: 19 µM (inactive)
SK-MEL-5
  GI50: 17.9 µM (inactive)
SW-620
  GI50: 3.39 µM (inactive)
SK-MEL-2
  GI50: 22.3 µM (inactive)
DU-145
  GI50: 16 µM (inactive)
UO-31
  GI50: 17.7 µM (inactive)
KM12
  GI50: 17.1 µM (inactive)
NCI-H226
  GI50: 23.4 µM (inactive)
HL-60
  GI50: 2.12 µM (inactive)
HCT-15
  GI50: 3.4 µM
IGROV-1
  GI50: 9.38 µM (inactive)
MOLT-4
  GI50: 2.11 µM (inactive)
SK-MEL-28
  GI50: 15.7 µM (inactive)
OVCAR-4
  GI50: 15.4 µM (inactive)
SF-539
  GI50: 18.8 µM (inactive)
CCRF-CEM
  GI50: 1.77 µM (inactive)
SNB-19
  GI50: 20.7 µM (inactive)
CAKI-1
  GI50: 12.4 µM (inactive)
OVCAR-5
  GI50: 18.8 µM (inactive)
SR
  GI50: 2.67 µM (inactive)
RPMI-8226
  GI50: 2.86 µM (inactive)
MDA-MB-435
  GI50: 15.1 µM (inactive)
U-251
  GI50: 18 µM (inactive)
SF-295
  GI50: 17.5 µM (inactive)
SNB-75
  GI50: 16.9 µM (inactive)
RXF 393
  GI50: 15.6 µM (inactive)
COLO 205
  GI50: 15.1 µM (inactive)
OVCAR-3
  GI50: 18 µM (inactive)
K562
  GI50: 2.69 µM (inactive)
M14
  GI50: 6.78 µM (inactive)
786-0
  GI50: 19.6 µM (inactive)
NCI-H460
  GI50: 15.3 µM (inactive)
LOX IMVI
  GI50: 16.7 µM (inactive)
NCI-H23
  GI50: 10.1 µM (inactive)
EKVX
  GI50: 18.7 µM (inactive)
Hs-578T
  GI50: 35.4 µM (inactive)
NCI-H522
  GI50: 1.56 µM (inactive)
T47D
  GI50: 7 µM (inactive)
TK-10
  GI50: 13.9 µM (inactive)
UACC-257
  GI50: 16.6 µM (inactive)
MCF7
  GI50: 12.8 µM (inactive)
